Among the data in patent US10294234B2, “HIV inhibitor compounds” (priority 2017, dated 2019) are EC50 values, retold here.

One test concerns HIV-1 (IIIB) in MT-4 cells. Briefly: MT-4 HIV assay. Type of test: cell-based. Conditions: Human immunodeficiency virus 1, MT4, 120 h. In a few lines:
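Antiviral activity was read by Cell Titer Glo after a 5-day, 37 °C culture of MT-4 cells pre-infected with a 1:250 dilution of HIV-1 (IIIB). Compounds were tested as threefold dilution series in complete RPMI. Controls were no drug, mock infection and 5 uM AZT.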
A word on the EC50: it is the concentration needed to bring the measured effect to its halfway point. For `COC(=O)N[C@H](C(=O)N[C@@H](Cc1ccc(C#Cc2ccc(N3CC4CCC(C3)N4CC3CN(C(=O)OC(C)(C)C)C3)nc2)cc1)[C@@H](O)CN(Cc1c(F)cc(-c2cnn(C(F)F)c2)cc1F)NC(=O)[C@@H](NC(=O)OC)C(C)(C)C(F)(F)F)C(C)(C)C(F)(F)F` [Example 110, tert-butyl 3-((3-(5-((4-((2S,3S)-4-(1-(4-(1-(difluoromethyl)-1H-pyrazol-4-yl)-2,6-difluorobenzyl)-2-((S)-4,4,4-trifluoro-2-((methoxycarbonyl)amino)-3,3-dimethylbutanoyl)hydrazinyl)-3-hydroxy-2-((S)-4,4,4-trifluoro-2-((methoxycarbonyl)amino)-3,3-dimethylbutanamido)butyl)phenyl)ethynyl)pyridin-2-yl)-3,8-diazabicyclo[3.2.1]octan-8-yl)methyl)azetidine-1-carboxylate], the 50% effective concentration (EC50) was 30.8 nM.

Staying with this test, now noted: Human immunodeficiency virus 1, MT4, 120 h; HIV-1 (IIIB), MT-4 cells, 5 days, Cell Titer Glo; read-out: EC50.
Consider `COC(=O)N[C@H](C(=O)NN(Cc1c(F)cc(-c2ccn(C3CC3)n2)cc1F)C[C@H](O)[C@H](Cc1ccc(C#Cc2ccc(N3CCN(C4COC4)CC3)nc2)cc1)NC(=O)[C@@H](NC(=O)OC)C(C)(C)C(F)(F)F)C(C)(C)C` [Example 91, Methyl ((5S,8S,9S,14S)-11-(4-(1-cyclopropyl-1H-pyrazol-3-yl)-2,6-difluorobenzyl)-9-hydroxy-15,15-dimethyl-8-(4-((6-(4-(oxetan-3-yl)piperazin-1-yl)pyridin-3-yl)ethynyl)benzyl)-3,6,13-trioxo-5-(1,1,1-trifluoro-2-methylpropan-2-yl)-2-oxa-4,7,11,12-tetraazahexadecan-14-yl)carbamate], for which the EC50 is 3.69 nM.

With `COC(=O)N[C@H](C(=O)N[C@@H](Cc1ccc(C#Cc2ccc(N3CCN(C4COC4)CC3)nc2)cc1)[C@@H](O)CN(Cc1c(F)cc(-c2ccn(C3CC3)n2)cc1F)NC(=O)[C@@H](NC(=O)OC)C(C)(C)C(F)(F)F)C(C)(C)C(F)(F)F` [Example 92, Methyl ((5S,8S,9S,14S)-11-(4-(1-cyclopropyl-1H-pyrazol-3-yl)-2,6-difluorobenzyl)-16,16,16-trifluoro-9-hydroxy-15,15-dimethyl-8-(4-((6-(4-(oxetan-3-yl)piperazin-1-yl)pyridin-3-yl)ethynyl)benzyl)-3,6,13-trioxo-5-(1,1,1-trifluoro-2-methylpropan-2-yl)-2-oxa-4,7,11,12-tetraazahexadecan-14-yl)carbamate], the EC50 turned out to be 3.72 nM. With `COC(=O)N[C@H](C(=O)NN(Cc1c(F)cc(-c2ncccn2)cc1F)C[C@H](O)[C@H](Cc1ccc(C#Cc2ccc(N3CCN(C4COC4)CC3)nc2)cc1)NC(=O)[C@@H](NC(=O)OC)C(C)(C)C(F)(F)F)C(C)(C)C` [Example 94, methyl ((5S,8S,9S,14S)-11-(2,6-difluoro-4-(pyrimidin-2-yl)benzyl)-9-hydroxy-15,15-dimethyl-8-(4-((6-(4-(oxetan-3-yl)piperazin-1-yl)pyridin-3-yl)ethynyl)benzyl)-3,6,13-trioxo-5-(1,1,1-trifluoro-2-methylpropan-2-yl)-2-oxa-4,7,11,12-tetraazahexadecan-14-yl)carbamate], the EC50 amounted to 2.57 nM. For `COC(=O)N[C@H](C(=O)NN(Cc1c(F)cc(-c2ncccn2)cc1F)C[C@H](O)[C@H](Cc1ccc(C#Cc2ccc(N3CC4CCC(C3)N4C3COC3)nc2)cc1)NC(=O)[C@@H](NC(=O)OC)C(C)(C)C(F)(F)F)C(C)(C)C` [Example 96, Methyl ((5S,8S,9S,14S)-11-(2,6-difluoro-4-(pyrimidin-2-yl)benzyl)-9-hydroxy-15,15-dimethyl-8-(4-((6-(8-(oxetan-3-yl)-3,8-diazabicyclo[3.2.1]octan-3-yl)pyridin-3-yl)ethynyl)benzyl)-3,6,13-trioxo-5-(1,1,1-trifluoro-2-methylpropan-2-yl)-2-oxa-4,7,11,12-tetraazahexadecan-14-yl)carbamate], the concentration for a half-maximal effect (EC50) amounted to 2.33 nM. On the same count and under the same terms, then `COC(=O)N[C@H](C(=O)N[C@@H](Cc1ccc(C#Cc2ccc(N3CC4CCC(C3)N4C3COC3)nc2)cc1)[C@@H](O)CN(Cc1c(F)cc(-c2ccc(C(F)F)nc2)cc1F)NC(=O)[C@@H](NC(=O)OC)C(C)(C)C(F)(F)F)C(C)(C)C(F)(F)F` [Example 100, Methyl ((5S,8S,9S,14S)-11-(4-(6-(difluoromethyl)pyridin-3-yl)-2,6-difluorobenzyl)-16,16,16-trifluoro-9-hydroxy-15,15-dimethyl-8-(4-((6-(8-(oxetan-3-yl)-3,8-diazabicyclo[3.2.1]octan-3-yl)pyridin-3-yl)ethynyl)benzyl)-3,6,13-trioxo-5-(1,1,1-trifluoro-2-methylpropan-2-yl)-2-oxa-4,7,11,12-tetraazahexadecan-14-yl)carbamate], with 7.96 nM. `COC(=O)N[C@H](C(=O)N[C@@H](Cc1ccc(C#Cc2ccc(N3CCN(C4CCOCC4)CC3)nc2)cc1)[C@@H](O)CN(Cc1c(F)cc(-c2ccn(C(F)F)n2)cc1F)NC(=O)[C@@H](NC(=O)OC)C(C)(C)C(F)(F)F)C(C)(C)C(F)(F)F` [Example 104, Methyl ((5S,8S,9S,14S)-11-(4-(1-(difluoromethyl)-1H-pyrazol-3-yl)-2,6-difluorobenzyl)-16,16,16-trifluoro-9-hydroxy-15,15-dimethyl-3,6,13-trioxo-8-(4-((6-(4-(tetrahydro-2H-pyran-4-yl)piperazin-1-yl)pyridin-3-yl)ethynyl)benzyl)-5-(1,1,1-trifluoro-2-methylpropan-2-yl)-2-oxa-4,7,11,12-tetraazahexadecan-14-yl)carbamate]: the EC50 was found to be 4.97 nM.

As for `COC(=O)N[C@H](C(=O)N[C@@H](Cc1ccc(C#Cc2ccc(N3CC4CCC(C3)N4CC3(C)COC3)nc2)cc1)[C@@H](O)CN(Cc1c(F)cc(-c2cnn(C(F)F)c2)cc1F)NC(=O)[C@@H](NC(=O)OC)C(C)(C)C(F)(F)F)C(C)(C)C(F)(F)F` [Example 108, Methyl ((5S,8S,9S,14S)-11-(4-(1-(difluoromethyl)-1H-pyrazol-4-yl)-2,6-difluorobenzyl)-16,16,16-trifluoro-9-hydroxy-15,15-dimethyl-8-(4-((6-(8-((3-methyloxetan-3-yl)methyl)-3,8-diazabicyclo[3.2.1]octan-3-yl)pyridin-3-yl)ethynyl)benzyl)-3,6,13-trioxo-5-(1,1,1-trifluoro-2-methylpropan-2-yl)-2-oxa-4,7,11,12-tetraazahexadecan-14-yl)carbamate], the EC50 was found to be 7.23 nM.

For `COC(=O)N[C@H](C(=O)N[C@@H](Cc1ccc(C#Cc2ccc(N3CC4CCC(C3)N4CC3CNC3)nc2)cc1)[C@@H](O)CN(Cc1c(F)cc(-c2cnn(C(F)F)c2)cc1F)NC(=O)[C@@H](NC(=O)OC)C(C)(C)C(F)(F)F)C(C)(C)C(F)(F)F` [Example 109, Methyl ((5S,8S,9S,14S)-8-(4-((6-(8-(azetidin-3-ylmethyl)-3,8-diazabicyclo[3.2.1]octan-3-yl)pyridin-3-yl)ethynyl)benzyl)-11-(4-(1-(difluoromethyl)-1H-pyrazol-4-yl)-2,6-difluorobenzyl)-16,16,16-trifluoro-9-hydroxy-15,15-dimethyl-3,6,13-trioxo-5-(1,1,1-trifluoro-2-methylpropan-2-yl)-2-oxa-4,7,11,12-tetraazahexadecan-14-yl)carbamate], the EC50 amounted to 59.7 nM.
